# Read-outs that look alike come from different tables or passages of the source.
# Columns and labels:
# [1] = Pharmacokinetics in male Balb/C mice (IV and PO); format: in vivo; conditions: mouse, plasma; for clearance: n = 3, read-out: CL (clearance) (converted); for Vd: n = 3, read-out: V ss (0–24 h) (volume of distribution at steady state); for bioavailability: PO. 10 mg/kg vs IV. 1 mg/kg, n = 3, read-out: F (oral bioavailability); for Cmax: n = 3, Table 3, read-out: Cmax (maximum concentration observed)
# Description: Pharmacokinetic experiments of test compounds were performed in male Balb/C mice similarly to our previous work. The mice were randomly assigned to two groups and were administrated the test compound orally and intravenously, respectively. The test compounds were prepared into 0.5 mg/mL oral solution with 10%PG, 10% ethanol, 10% solutol and 70% normal saline, or 0.1 mg/mL injection solution with 2% PG, 2% ethanol, 2% solutol and 94% normal saline. After intravenous or oral administration, blood was collected from the orbital venous plexus into heparinized EP tube (0.6 mL) at 5, 15, 30 min, 1, 2, 6, 10, and 24 h, temporarily placed on crushed ice. Certain processing was performed on blood samples and testing samples were sent to LC-MS/MS for analysis.
# [2] = test system: 22Rv1 cells; assay: 22Rv1 cell viability (CCK-8) antiproliferation assay; format: cell-based, human; conditions: for IC50: Homo sapiens, Table 2, 22Rv1 cells, means of two independent experiments (n = 2)
# Description: The 22Rv1 prostate cancer cell line in this study was purchased from KeyGEN Biotech Co. Ltd. (Nanjing, Jiangsu, China ). The cells were cultured in RPMI 1640 medium and maintained at 37 °C in a 5% CO2 incubator. For the cell viability assay, the cell slurry was diluted to required volume at a density of 80,000 cells/mL. Then, 100 μL the cell slurry was seeded in each well of the 96-well plate. The cells were incubated for 72 h at 37 °C, 5% CO2 under humidified condition. The reference and test compounds solution (200×) were prepared with DMSO and were diluted from 200× to 1× with culture medium (RPMI 1640 medium without phenol red and containing 10% fetal calf serum, penicillin (100U/mL), streptomycin (100 μg/mL) and 0.1 nM DHT). The previous culture medium was removed and 200 μL/well of the compound solution (1×) was added to assay plate (final conc: 1×). Then the cells were incubated at 37 °C, 5% CO2 under humidified conditions. 5 Days later, the CCK-8 assay reagent was equilibrated at room temperature for 30 min prior to use. CCK-8 was mixed with fresh medium at a ratio of 1:10 and 100 μL of the diluted CCK8 reagent was added to each well and the plates were incubated for 4.5 h at 37 °C. Finally, absorbance value (OD value) was read on plate reader. GraphPad Prism v5.0 software was used to process data for IC50.
# [3] = IV. 1 mg/kg, n = 3, read-out: AUC(0–24h)
# [4] = IV. 1 mg/kg, n = 3, read-out: T1/2 (half-life) (converted)
# [5] = PO. 10 mg/kg, n = 3, Table 3, read-out: AUC (0–24 h)
# [6] = PO. 10 mg/kg, n = 3, Table 3, read-out: T1/2 (converted)
smiles,measurement,setting,value
"CNC(=O)Cn1cc(-c2ccc3c(c2)CCC32OC(=O)N(CC(=O)N(Cc3ccc(F)cc3)[C@H]3CCc4cccnc43)C2=O)cn1 (stereo partly drawn) [B8, N-((S)-6,7-Dihydro-5H-cyclopenta[b]pyridin-7-yl)-N-(4-fluorobenzyl)-2-(5-(1-(2-(methylamino)-2-oxoethyl)-1H-pyrazol-4-yl)-2′,4′-dioxo-2,3-dihydrospiro[indene-1,5′-oxazolidin]-3′-yl)acetamide]",AUC(0-t),[1]; [3],766 ± 71.2 ng·h/mL
same,clearance,[1]; IV. 1 mg/kg,18.3 mL/min/kg
same,half-life,[1]; [4],17 ± 4.9 h
same,Vd,[1]; IV. 1 mg/kg,13.2 ± 4.2 L/kg
same,bioavailability,[1],21.6 ± 3.8%
same,AUC(0-t),[1]; [5],1660 ± 294 ng·h/mL
same,Cmax,[1]; PO. 10 mg/kg,878 ± 94.3 ng/mL
same,half-life,[1]; [6],23.9 ± 3.6 h
same,IC50,[2],153 nM
"CNC(=O)Cn1cc(-c2ccc3c(c2)CCC32OC(=O)N(CC(=O)N(Cc3ccc(F)cc3)[C@H]3CCOc4ccccc43)C2=O)cn1 (stereo partly drawn) [B16, N-((S)-chroman-4-yl)-N-(4-fluorobenzyl)-2-(5-(1-(2-(methylamino)-2-oxoethyl)-1H-pyrazol-4-yl)-2′,4′-dioxo-2,3-dihydrospiro[indene-1,5′-oxazolidin]-3′-yl) acetamide]",AUC(0-t),[1]; [3],536 ± 18.1 ng·h/mL
same,clearance,[1]; IV. 1 mg/kg,30 mL/min/kg
same,half-life,[1]; [4],0.5 h
same,Vd,[1]; IV. 1 mg/kg,1 ± 0.1 L/kg
same,bioavailability,[1],33.2 ± 3%
same,AUC(0-t),[1]; [5],1780 ± 158 ng·h/mL
same,Cmax,[1]; PO. 10 mg/kg,759 ± 76.5 ng/mL
same,half-life,[1]; [6],1.6 ± 0.3 h
same,fold more potency than A-485,[2]; 22Rv1 cell antiproliferation,2 fold
same,IC50,[2],96 nM
